Test results taken from patent US20240158446A1, “CYCLIC COMPOUND HAVING SELECTIVE INHIBITORY ACTION ON KRAS OVER HRAS AND NRAS” (CHUGAI SEIYAKU KABUSHIKI KAISHA, priority 2021, published 2024).
Read-outs that look alike come from different tables or passages of the source. *1 amine or outer side, *2 acyl side, *3 side chain or, on linkers, in order; H or OH if unused. Where a SMILES comes first, the peptide text is derived from it. Bridges are numbered along the chain shown (N, C = ends). [ ]: non-standard residue; d: D form. The star is where a group is joined. hPhe(3-Cl-4-CF3) = N[C@@H](CCc1ccc(C(F)(F)F)c(Cl)c1)C(=O)O; X5 = C=CCN([C@@H](Cc1ccc(C(F)(F)F)cc1)C(=O)[*:2])[*:1]; NMeGly(cPent) = CN[C@H](C(=O)O)C1CCCC1; NMeD = CN[C@@H](CC(=O)O)C(=O)O; NMeL = CN[C@@H](CC(C)C)C(=O)O; Morpholide = C1CN(*)CCO1; Ac5c = NC1(C(=O)O)CCCC1; Sar = CNCC(=O)O

Legend:
[1] = biological target: GDP-bound HRAS wild-type protein (Homo sapiens, UniProt P01112); test: Binding to HRAS by surface plasmon resonance (SPR), Single Cycle Kinetics; details: for HRAS/KRAS (ratio of KD value for HRAS to KD value for KRAS): SPR, GDP-bound HRAS wild-type protein vs GDP-bound KRAS wild-type protein; for HRAS/KRAS (ratio of KD value with respect to GDP-bound HRAS wild-type protein to KD value with respect to KRAS): SPR KD ratio HRAS/KRAS, class symbols
Chain of GDP-bound HRAS wild-type protein (P01112 whole entry): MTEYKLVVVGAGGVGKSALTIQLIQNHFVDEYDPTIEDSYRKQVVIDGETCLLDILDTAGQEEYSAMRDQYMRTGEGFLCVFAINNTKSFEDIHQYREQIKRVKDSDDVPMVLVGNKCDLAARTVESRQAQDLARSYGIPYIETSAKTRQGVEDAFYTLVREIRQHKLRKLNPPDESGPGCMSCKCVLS

[2] = biological target: GDP-bound NRAS wild-type protein (Homo sapiens, UniProt P01111); test: Binding to NRAS by surface plasmon resonance (SPR), Single Cycle Kinetics; details: for NRAS/KRAS (ratio of KD value for NRAS to KD value for KRAS): SPR, GDP-bound NRAS wild-type protein vs GDP-bound KRAS wild-type protein; for NRAS/KRAS (ratio of KD value with respect to GDP-bound NRAS wild-type protein to KD value with respect to KRAS): SPR KD ratio NRAS/KRAS, class symbols
Chain of GDP-bound NRAS wild-type protein (P01111 whole entry): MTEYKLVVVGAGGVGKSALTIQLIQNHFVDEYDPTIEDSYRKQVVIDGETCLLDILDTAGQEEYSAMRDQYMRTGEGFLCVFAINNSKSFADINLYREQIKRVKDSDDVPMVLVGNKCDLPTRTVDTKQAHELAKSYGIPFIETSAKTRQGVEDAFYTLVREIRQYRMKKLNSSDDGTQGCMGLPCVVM

[3] = test system: human lung cancer strain NCI-H441;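 note: cell proliferation inhibition after four days measured by CellTiter-Glo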
[4] = biological target: GDP-bound KRAS wild-type protein (Homo sapiens, UniProt P01116); test: Binding to KRAS by surface plasmon resonance (SPR), Single Cycle Kinetics; details: GDP-bound KRAS wild-type protein
Chain of GDP-bound KRAS wild-type protein (P01116 whole entry): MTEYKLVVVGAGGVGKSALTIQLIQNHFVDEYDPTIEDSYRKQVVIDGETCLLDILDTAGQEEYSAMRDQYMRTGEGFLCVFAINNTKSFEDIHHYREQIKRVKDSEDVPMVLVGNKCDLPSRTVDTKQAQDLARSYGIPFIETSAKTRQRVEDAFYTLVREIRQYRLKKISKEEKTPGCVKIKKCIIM

[5] = SPR Single Cycle Kinetics, 1:1 binding model, read-out: KRAS KD
[6] = SPR, Single Cycle Kinetics, read-out: KRAS KD
[7] = SPR, Single Cycle Kinetics, 1:1 binding model, read-out: KRAS KD

SMILES | HRAS/KRAS (ratio of KD value for HRAS to KD value for KRAS) [1] | NRAS/KRAS (ratio of KD value for NRAS to KD value for KRAS) [2] | IC50 [3] [nM] | Kd [4, 5] [M] | Kd [4, 6] [M] | HRAS/KRAS (ratio of KD value with respect to GDP-bound HRAS wild-type protein to KD value with respect to KRAS) [1] | NRAS/KRAS (ratio of KD value with respect to GDP-bound NRAS wild-type protein to KD value with respect to KRAS) [2] | Kd ([4]; KRAS KD (M), SPR Single Cycle Kinetics, 1:1 binding model) [M] | HRAS/KRAS (ratio of KD value for HRAS to KD value for KRAS) ([1]; KD ratio class) | NRAS/KRAS (ratio of KD value for NRAS to KD value for KRAS) ([2]; KD ratio class) | Kd [4, 7] [M]
C=CCN1C(=O)CN(C)C(=O)CN(C)C(=O)[C@H]([C@@H](C)CC)NC(=O)[C@H](CC(C)C)N(C)C(=O)C[C@@H](C(=O)N2CCOCC2)N(C)C(=O)[C@H](C2CCCC2)N(C)C(=O)C2(CCCC2)NC(=O)[C@@H]2CCCN2C(=O)[C@H](CCc2ccc(C(F)(F)F)c(Cl)c2)NC(=O)CN(C)C(=O)[C@@H]1Cc1ccc(C(F)(F)F)cc1 [PP0128] ([NMeL]I[Sar][Sar][X5][Sar][hPhe(3-Cl-4-CF3)]P[Ac5c][NMeGly(cPent)][NMeD]-Morpholide; lactam N-11) | C (A compound having a KD ratio of 0.1 or more and less than 3 is denoted as C) | C (A compound having a KD ratio of 0.1 or more and less than 3 is denoted as C) | 10.4 | 2.5e-10 | – | – | – | – | – | – | –
CCO[C@@H]1C[C@H]2C(=O)NC3(CC(C)(C)C3)C(=O)N(C)[C@@H](C3CCCC3)C(=O)N(C)[C@H](C(=O)N(CC)CC)CC(=O)N(C)[C@@H](COC)C(=O)N[C@@H]([C@@H](C)CC)C(=O)N(C)CC(=O)N(C)[C@H]3C/C=C\CCN(C3=O)[C@@H](Cc3ccc(C)cc3)C(=O)N(C)CC(=O)N[C@@H](CCc3cc(F)c(C(F)(F)F)c(F)c3)C(=O)N2C1 [PP2403] | A (a compound having 10 or more and less than 20 is denoted as A) | A (a compound having 10 or more and less than 20 is denoted as A) | 7.2 | – | 2.2e-10 | – | – | – | – | – | –
CCC[C@H]1C(=O)N[C@@H]([C@@H](C)CC)C(=O)N(C)CC(=O)N(C)[C@H]2C/C=C\CCN(C2=O)[C@@H](Cc2ccc(C(F)(F)F)cc2)C(=O)N(C)CC(=O)N[C@@H](CCc2cc(Cl)c3c(ccn3C)c2)C(=O)N2C[C@H](OCC)C[C@H]2C(=O)NC2(CC(C)(C)C2)C(=O)N(C)[C@@H](C(CC)CC)C(=O)N(C)[C@H](C(=O)N(C)C)CC(=O)N1C [PP2896] | – | – | 79.3 | – | – | A (a compound having 10 or more and less than 20 is denoted as A) | A (a compound having 10 or more and less than 20 is denoted as A) | 2.8e-09 | – | – | –
CCCOC[C@H]1C(=O)N[C@@H]([C@@H](C)CC)C(=O)N2CCC[C@H]2C(=O)N(C)[C@H]2C/C=C\CCN(C2=O)[C@@H](Cc2ccc(C)cc2)C(=O)N(C)CC(=O)N[C@@H](CCc2ccc(C(F)(F)F)c(OC)c2)C(=O)N2C[C@@H](C)C[C@H]2C(=O)NC2(CC(C)(C)C2)C(=O)N(C)[C@@H](C2CCCC2)C(=O)N(C)[C@H](C(=O)N(C)CC)CC(=O)N1C [PP2429] | B (a compound having 3 or more and less than 10 is denoted as B) | A (a compound having 10 or more and less than 20 is denoted as A) | 8.3 | – | 4.5e-09 | – | – | – | – | – | –
CC[C@H](C)[C@@H]1NC(=O)[C@H](CC)N(C)C(=O)C[C@@H](C(=O)N2CCOCC2)N(C)C(=O)[C@H](C2CCCC2)N(C)C(=O)C2(CCCC2)NC(=O)[C@@H]2CCCN2C(=O)[C@H](CCc2ccc(C(F)(F)F)c(Cl)c2)NC(=O)CN(C)C(=O)[C@H](Cc2ccc(C(F)(F)F)cc2)N2C[C@H](C)CC[C@@H](C2=O)N(C)C(=O)CN(C)C1=O [PP1337] | – | – | 29.8 | – | – | – | – | – | B (a compound having 3 or more and less than 10 is denoted as B) | B (a compound having 3 or more and less than 10 is denoted as B) | 1.7e-10
CC[C@H](C)[C@@H]1NC(=O)[C@H](CC(C)C)N(C)C(=O)C[C@@H](C(=O)N2CCOCC2)N(C)C(=O)[C@H](C2CCCC2)N(C)C(=O)C2(CCC2)NC(=O)[C@@H]2C[C@@H](OCC(C)C)CN2C(=O)[C@H](CCc2cc(F)c(C(F)(F)F)c(F)c2)NC(=O)CN(C)C(=O)[C@H](Cc2ccc(C(F)(F)F)cc2)N2CCCC[C@@H](C2=O)N(C)C(=O)CN(C)C1=O [PP1160] | B (a compound having 3 or more and less than 10 is denoted as B) | B (a compound having 3 or more and less than 10 is denoted as B) | 18.4 | – | 3.2e-11 | – | – | – | – | – | –
CCO[C@@H]1C[C@H]2C(=O)NC3(CCC3)C(=O)N(C)[C@@H](C3CCCC3)C(=O)N(C)[C@@H](C(=O)N(C)C)CC(=O)N(C)[C@@H](CC)C(=O)N[C@@H]([C@@H](C)CC)C(=O)N(C)CC(=O)N(C)[C@H]3C/C=C\CCN(C3=O)[C@@H](Cc3ccc(C(F)(F)F)cc3)C(=O)N(C)CC(=O)N[C@@H](CCc3cc(F)c(C(F)(F)F)c(F)c3)C(=O)N2C1 [PP1234] | – | – | 398 | – | – | – | – | – | C (A compound having a KD ratio of 0.1 or more and less than 3 is denoted as C) | B (a compound having 3 or more and less than 10 is denoted as B) | 3.8e-09
CCO[C@@H]1C[C@H]2C(=O)NC3(CCC3)C(=O)N(C)[C@@H](C3CCCC3)C(=O)N(C)[C@H](C(=O)N3CCOCC3)CC(=O)N(C)[C@@H](C)C(=O)N[C@@H]([C@@H](C)CC)C(=O)N(C)CC(=O)N(C)[C@H]3CCCCCN(C3=O)[C@@H](Cc3ccc(F)cc3)C(=O)N(C)CC(=O)N[C@@H](CCc3cc(F)c(C(F)(F)F)c(F)c3)C(=O)N2C1 [PP1175] | B (a compound having 3 or more and less than 10 is denoted as B) | B (a compound having 3 or more and less than 10 is denoted as B) | 23.5 | – | 1.6e-10 | – | – | – | – | – | –
CCCOC[C@H]1C(=O)N[C@@H]([C@@H](C)CC)C(=O)N2CCC[C@H]2C(=O)N(C)[C@H]2C/C=C\CCN(C2=O)[C@@H](Cc2ccc(C)cc2)C(=O)N(C)CC(=O)N[C@@H](CCc2ccc(C(F)(F)F)c(OC)c2)C(=O)N2C[C@@H](C)C[C@H]2C(=O)N(C)C2(CCC2)C(=O)N(C)[C@@H](C2CCCC2)C(=O)N(C)[C@H](C(=O)N(C)C)CC(=O)N1C [PP2369] | B (a compound having 3 or more and less than 10 is denoted as B) | A (a compound having 10 or more and less than 20 is denoted as A) | 4.5 | – | 6.2e-11 | – | – | – | – | – | –
CCO[C@@H]1C[C@H]2C(=O)NC3(CC(C)(C)C3)C(=O)N(C)[C@@H](C3CCCC3)C(=O)N(C)[C@H](C(=O)N(CC)CC)CC(=O)N(C)[C@@H](COC)C(=O)N[C@@H]([C@@H](C)CC)C(=O)N(C)CC(=O)N(C)[C@H]3C/C=C\CCN(C3=O)[C@@H](Cc3ccc(C)cc3)C(=O)N(C)CC(=O)N[C@@H](CCc3ccc(C(F)(F)F)c(Cl)c3)C(=O)N2C1 [PP2400] | A (a compound having 10 or more and less than 20 is denoted as A) | A (a compound having 10 or more and less than 20 is denoted as A) | 5.8 | – | 2e-10 | – | – | – | – | – | –
CCCOC[C@H]1C(=O)N[C@@H]([C@@H](C)CC)C(=O)N(C2CC2)CC(=O)N(C)[C@H]2C/C=C\CCN(C2=O)[C@@H](CC2CCC(F)(F)CC2)C(=O)N(C)CC(=O)N[C@@H](CCc2ccc(C(F)(F)F)c(OC)c2)C(=O)N2C[C@@H](C)C[C@H]2C(=O)N(C)C2(CCC2)C(=O)N(C)[C@@H](C2CCCC2)C(=O)N(C)[C@H](C(=O)N(C)C)CC(=O)N1C [PP2379] | A (a compound having 10 or more and less than 20 is denoted as A) | A (a compound having 10 or more and less than 20 is denoted as A) | 2.2 | – | 7.6e-10 | – | – | – | – | – | –
CCCCCC[C@H]1C(=O)N[C@@H]([C@@H](C)CC)C(=O)N(C)CC(=O)N(C)[C@H]2C/C=C\CCN(C2=O)[C@@H](Cc2ccc(C(F)(F)F)cc2)C(=O)N(C)CC(=O)N[C@@H](CCc2ccc(Cl)c(Cl)c2)C(=O)N2C[C@H](OCC)C[C@H]2C(=O)NC2(CCC2)C(=O)N(C)[C@@H](C(CC)CC)C(=O)N(C)[C@H](C(=O)N(C)C)CC(=O)N1C [PP1218] | – | – | 67.9 | – | – | – | – | – | A (a compound having 10 or more and less than 20 is denoted as A) | AA (a compound having 20 or more is denoted as AA) | 8.8e-10
CCOC[C@H]1C(=O)N[C@@H]([C@@H](C)CC)C(=O)N(C)CC(=O)N(C)[C@H]2C/C=C\CCN(C2=O)[C@@H](Cc2ccc(C(F)(F)F)cc2)C(=O)N(C)CC(=O)N[C@@H](CCc2ccc(Cl)c(Cl)c2)C(=O)N2C[C@H](OCC)C[C@H]2C(=O)NC2(CC(C)(C)C2)C(=O)N(C)[C@@H](CC2CCC2)C(=O)N(C)[C@H](C(=O)N(C)C)CC(=O)N1C [PP2767] | – | – | 62.6 | 4.9e-10 | – | A (a compound having 10 or more and less than 20 is denoted as A) | A (a compound having 10 or more and less than 20 is denoted as A) | – | – | – | –
